Assay [1] concerns the target T1, CD73 expressed on the MDA-MB-231 cell surface (Homo sapiens, UniProt P21589).
T1 construct: host or cells: MDA-MB-231
T1 sequence (P21589 27-549): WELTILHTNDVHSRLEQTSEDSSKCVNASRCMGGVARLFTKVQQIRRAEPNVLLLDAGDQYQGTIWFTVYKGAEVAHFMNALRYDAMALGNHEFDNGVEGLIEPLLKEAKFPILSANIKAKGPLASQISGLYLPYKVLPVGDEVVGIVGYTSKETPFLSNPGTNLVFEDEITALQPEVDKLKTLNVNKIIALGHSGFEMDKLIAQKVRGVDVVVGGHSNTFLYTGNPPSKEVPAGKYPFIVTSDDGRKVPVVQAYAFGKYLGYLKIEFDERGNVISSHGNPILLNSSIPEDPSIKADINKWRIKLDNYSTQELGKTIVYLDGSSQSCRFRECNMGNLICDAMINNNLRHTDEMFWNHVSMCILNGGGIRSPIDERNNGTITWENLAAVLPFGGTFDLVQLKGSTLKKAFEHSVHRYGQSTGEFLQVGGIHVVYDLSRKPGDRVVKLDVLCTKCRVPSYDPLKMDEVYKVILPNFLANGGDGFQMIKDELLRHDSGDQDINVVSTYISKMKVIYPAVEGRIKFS
Put plainly: Cell-based CD73 enzyme inhibition assay using MDA-MB-231 cells (CellTiter-Glo). The protocol:
The cell-based CD73 enzyme inhibition assay was performed essentially as described above for the cell-free assay, with the following modifications. MDA-MB-231 human breast adenocarcinoma cells (ATCC CRM-HTB-26) were seeded at 2×10^4 cells/well/100 μL into 96-well tissue culture-treated plates (Corning Costar cat no. 3596) and incubated overnight at 37° C., 5% CO2. Cells were incubated with test inhibitors (50 μL/well) and AMP (25 μL/well, final 400 μM) for 3 h at 37° C., 5% CO2 to allow for interaction with CD73 expressed on the MDA-MB-231 cell surface. The 96-well plate was then centrifuged at 125×g for 5 min at room temperature and ATP (25 μL/well, 100 μM final) was combined with supernatant (25 μL/well) in a white opaque 96-well plate (Corning Costar cat no. 3912). The CD73 activity in the supernatant was quantified using the CellTiter-Glo kit (Promega cat no. G7571). Percent CD73 inhibition (y-axis) versus log10 inhibitor concentration (x-axis) were plotted using GraphPad Prism Version 8 and IC50's calculated using nonlinear regression analysis (Sigmoidal, 4 PL).
An additional assay was performed to test the effect of linker length on IC50 potency using the cell-based CD73 enzyme inhibition assay. Conjugate 194, Conjugate 195, and Conjugate 196 have the same small molecule targeting moiety (Int) as Conjugate 172c (batch 9) but with varying linker lengths.

A further assay concerns the target T2, CD73 on MDA-MB-231 cells (Homo sapiens, UniProt P21589).
T2 construct: host or cells: MDA-MB-231
T2 sequence (P21589 27-549): T1 sequence (P21589 27-549)
Put plainly: CD73 internalization assay (Fab-ZAP). The assay is classed as cell-based.

The target of another assay is T3, CD73 on human PBMCs (Homo sapiens, UniProt P21589).
T3 construct: 72400 (T cells); host or cells: human PBMCs / human T cells
T3 sequence (P21589 27-549): T1 sequence (P21589 27-549)
Briefly: CD73 enzyme inhibition assay with human PBMCs (PiColorLock). The assay is classed as cell-based. Particulars: AMP 100 μM. The protocol: The cell-based CD73 enzyme inhibition assay was performed in a 96-well plate format using the PiColorLock phosphate assay kit in accordance with the manufacturer's instructions (Abcam cat no. 270004). 4T1 mouse cells are a model for stage IV human breast cancer (ATCC CRL-2539) and human peripheral blood mononuclear cells (PBMCs; StemCell Technologies cat no. 70025) from three different donors were assayed. 4T1 cells were washed three times with a phosphate-free CD73 buffer (Lawson et al., 2020), detached from tissue-culture flasks using a cell scraper, and seeded at 5×10^3 cells/well into 96-well tissue culture-treated plates. Human PBMCs were washed three times with phosphate-free CD73 buffer at 125×g for 10 min at room temperature and seeded at 1×10^5 cells/well into 96-well tissue culture-treated plates. Test articles were tested from 0.001 nM to 1,000 nM (4T1 cells) or 0.0001 nM to 100 nM (PBMCs) and incubated with cells for 30 min at 37° C., 5% CO2. AMP (100 μM final concentration) was added to cells and test articles, and the reaction incubated for 3 h and 24 h at 37° C., 5% CO2. The conversion of AMP to adenosine and phosphate in cell-free supernatant was quantified using the PiColorLock kit. Colorimetric detection reagent was added and the phosphate production was measured by reading the absorbance at 635 nm with the EnSpire multimode plate reader (PerkinElmer). Cells without test article (positive control) were included on each plate. Control wells without test article and cells (background) were subtracted from all wells. Percent CD73 inhibition versus inhibitor concentration was plotted using GraphPad Prism Version 8 and IC50's calculated using nonlinear regression analysis (Sigmoidal, 4 PL).
The cell-based CD73 enzyme inhibition assay was performed in a 96-well plate format using the Phosphate Assay Kit—PiColorLock™ in accordance with the manufacturer's instructions (cat no. 270004, Abcam). AMP is enzymatically converted by CD73 to adenosine and phosphate. Therefore, adenosine concentrations can be inferred from phosphate concentrations in 1:1 ratio. Both EMT6 mouse mammary carcinoma cells (ATCC CRL-2755) and human peripheral blood mononuclear cells (PBMC; Stemcell Technologies cat no. 70025, lot no. 2202401007) were assayed. The EMT6 cells were washed three times with a phosphate free CD73 buffer, detached from flasks using a cell scraper, and seeded at 3×10^3 cells/well in 100 μL into 96-well tissue culture-treated plates. Human PBMC cells were washed three times by suspending in phosphate free CD73 buffer and pelleting in a centrifuge at 125×g for 10 min at room temperature and seeded at 5×10^5 cells/well in 100 μL into 96-well tissue culture-treated plates. […] AMP was added at 100 μM and cells, test articles, and AMP were incubated together for 3 h and 24 h at 37° C., 5% CO2. The CD73 activity in the supernatant was quantified using the PiColorLock Phosphate assay kit. Colorimetric detection reagent was added and the free phosphate from the CD73 reaction was measured by reading the absorbance at 635 nm using the EnSpire multimode plate reader (PerkinElmer). Wells without test inhibitor (CD73 positive control) were included on each plate. Wells without test inhibitor and cells (background) were subtracted from all wells. The percent CD73 inhibition versus inhibitor concentration was plotted using GraphPad Prism Version 8 and IC50's calculated using nonlinear regression analysis (Sigmoidal, 4 PL).

Where [2] appears, read: MDA-MB-231 cells, AMP 400 μM, 3 h, Table 29 experiment.
Where [3] appears, read: read-out: 3 h median IC50 [nM] (range), three unique PBMC donors, 3 h.
Setting [4] is: three unique PBMC donors, 24 h, read-out: 24 h median IC50 [nM] (range).

The values that follow come from patent US20260000781A1, “FC CONJUGATES INCLUDING AN INHIBITOR OF CD73 AND USES THEREOF” (Cidara Therapeutics, Inc., priority 2022, published 2026).

Each structure is given as a SMILES string. Where “and” joins values, the source holds several entries; their conditions need not be identical. Equal values may be shown once. Read-outs that look alike come from different tables or passages of the source.

Procedure for CD73 on MDA-MB-231 cells: Cells were plated into white tissue culture-treated 96 well plates (Corning cat no. 3917) at 5×10^3 to 1×10^4 cells/well in 100 μL in RPMI (Gibco cat no. 11875093)+10% FBS (Gibco cat no. 16140071) and incubated overnight at 37° C. with 5% CO2. Serial dilutions of test article (TA) from 0.00002 nM-200 nM (2× final concentration) were pre-incubated with 100 nM Fab-ZAP reagent (2× final concentration) for 30 min at room temperature. Cells were washed once with 150 μL/well 1×PBS (Gibco cat no. 10010023), followed by the addition of 50 μL/well of media and 50 μL/well TA/Fab-ZAP mix. Cells were then incubated for 72 h at 37° C. with 5% CO2 and viability was determined after 72 h via the CellTiter-Glo assay (Promega cat no. G7570) following the manufacturer's instructions. Cell viability RLU versus log10 nM drug concentration was plotted using GraphPad Prism. The % CD73 internalization was calculated using the following formula: % CD73 internalization=[1−RLU (sample)/RLU (untreated cells)]×100%. The EC50's for each TA was calculated using the 4 PL non-linear regression analysis in GraphPad Prism software.
Cells were plated into white tissue culture-treated 96 well plates (Corning cat no. 3917) at 2×10^3 cells/well in 100 μL in RPMI (Gibco cat no. 11875093)+10% FBS (Gibco cat no. 16140071) and incubated overnight at 37° C. with 5% CO2. Serial dilutions of test article (TA) from 0.06 nM-20 nM (2× final concentration) were pre-incubated with 100 nM Fab-ZAP reagent (2× final concentration) for 30 min at room temperature. […] Cells were then incubated for 96 h at 37° C. with 5% CO2 and viability was determined after 96 h via the CellTiter-Glo assay (Promega cat no. G7570) following the manufacturer's instructions. […] The % CD73 internalization was calculated using the following formula: % CD73 internalization=[1−RLU (sample)/RLU (untreated cells)]×100%. The EC50's for each TA was calculated using the 4 PL non-linear regression analysis in GraphPad Prism software.

For `COC[C@](CO)(OC[C@H]1O[C@@H](n2ncc3c(NC4CCCC4)nc(Cl)nc32)[C@H](O)[C@@H]1O)P(=O)(O)O` [OP-5244], the IC50 in assay [1] (setting [2]) was 900 pM and 870 pM; at CD73 on human PBMCs (human PBMCs, 24 h (Table 18), read-out: 24 h IC50), 0.28 nM; on CD73 on human PBMCs (read-out: 3 h IC50, human PBMCs, 3 h (Table 18)), 0.011 nM; on CD73 on human PBMCs (setting [3]), 0.07 nM; on CD73 on human PBMCs (setting [4]) it was 0.15 nM. Moreover, the “Cell internalization EC50 (nM)” value is “did not induce receptor internalization” on CD73 on MDA-MB-231 cells (72 h (Table 11)) and “No activity” on CD73 on MDA-MB-231 cells (96 h (Table 23)).
For `O=P(O)(O)COC[C@H]1O[C@@H](n2ncc3c(N4CC5(CCc6ccccc65)C4)nc(Cl)nc32)[C@H](O)[C@@H]1O` [SHR170008], the half-maximal inhibitory concentration (IC50) in assay [1] (setting [2]) was 3700 pM; in assay [1] (additional assay on linker length, Table 30 experiment), 4000 pM; on CD73 on human PBMCs (setting [3]) it was 1.45 nM; at CD73 on human PBMCs (setting [4]) it was 2.36 nM. Moreover, the “Cell internalization EC50 (nM)” value on CD73 on MDA-MB-231 cells (72 h (Table 11)) is listed as “did not induce receptor internalization”.
